Reference: publication PMC8770641, “A transcytotic transport mechanism across the tympanic membrane” (Scientific Reports, 2022)

Key:
[1] = tested on: trans-TM transport of phage expressing peptide TMT-3; assay: Inhibitor studies: effect on trans-TM transport of phage expressing peptide TMT-3; assay type: in vivo, Sprague Dawley rats; conditions: 1 h, n = 6 ears; for Effect on trans-TM phage transport: NTHi-infected rats; for Reduction of trans-TM transport: ME contents titered
Procedure: Figure 5 illustrates the results of inhibitor studies.
The MEs of rats were infected with NTHi as above. 48 h later, the external ears of six anesthetized rats were injected with 50 µl of saline containing 10^10 phage expressing TM-3 peptide and up to four inhibitors. Inhibitors were applied at 5–10 times the published IC50 (see Table 1). For any combination of that affected trans-TM transport, Inhibitors were then tested individually to identify the active agent(s). Inhibitors included bafilomycin A (2 µM), brefeldin A (1 uM), carrageenan (200 mg/ml), chlorpromazine (300 µM), Dynasore (500 µM), Endosidin-2 (1 mM), Exo-1 (200 µM), Filipin (50 µg/ml), genistein (100 µM), N-ethylmaleimide (50 µM), nocodazole (300 µM), PitStop-2 (100 µM), Retro-2 (100 µM) and wortmannin (100 µM). […] Six external ears were injected with 10^9 wild-type (WT) phage without a peptide, as negative controls for phage contamination. After one hour, the external ears were extensive rinsed to remove all phage, the MEs were opened and the contents titered to quantify bacteriophage entry. Six replicates were averaged to get the mean and The standard error was calculated by dividing the standard deviation by the sample size's square root (n = 6).

tympanic membrane (TM) = conditions: purified phage applied to the TM of previously infected rats for one hour; ME contents titered; mean of n = 6; cited from earlier work
Description: Table 1 Sequences and ME recovery of trans-TM 12-mer peptide phage identified by two screening methods (data from Kurabi et al.[19]). Each purified phage was applied to the TM of previously infected rats for one hour (n = 6), and the ME contents then tittered and the number of phage particles recovered were averaged (mean of n = 6). Phage recovery was grouped into transport categories, which were | column: Mean recovery from ME (PFUs)

[2] = inhibitor 100 µM with TMT-3 phage
[3] = inhibitor 300 µM with TMT-3 phage
[4] = inhibitor 100 µM with 10^10 TMT-3 phage in 50 µl saline in external ear of NTHi-infected rats (48 h)

Question: Which “Effect on trans-TM phage transport” value [1, 2] does the source give for `O=C1NC(=NS(=O)(=O)c2cccc3ccccc23)S/C1=C\c1ccc(Br)cc1` [Pitstop-2] here?
Answer: Neither Pitstop-2, as illustrated in Fig. 5, nor chlorpromazine had any effect

Question: Which “Effect on trans-TM phage transport” value ([1]; inhibitor 200 mg/ml with TMT-3 phage) does the source give for carrageenan here?
Answer: no effect

Question: With “ALWPPNLHAWVP [BPT-2, trans-TM 12-mer peptide expressed on M13 bacteriophage, fused through the C-terminus to the pIII protein]” as the molecule, how does the “Mean recovery from ME (PFUs)” value (tympanic membrane (TM)) read?
Answer: 210 PFUs

Question: Which “Mean recovery from ME (PFUs)” value (tympanic membrane (TM)) does the source give for “TFNPPPPQMPST [BPT-4, trans-TM 12-mer peptide expressed on M13 bacteriophage, fused through the C-terminus to the pIII protein]” here?
Answer: 9040 PFUs

Question: Which “Mean recovery from ME (PFUs)” value (tympanic membrane (TM)) does the source give for “SDDSRPIAQFAI [TMT-5, trans-TM 12-mer peptide expressed on M13 bacteriophage, fused through the C-terminus to the pIII protein]” here?
Answer: 3017 PFUs

Question: Which “Mean recovery from ME (PFUs)” value (tympanic membrane (TM)) does the source give for “SPPGKFLESLRS [TMT-1, trans-TM 12-mer peptide expressed on M13 bacteriophage, fused through the C-terminus to the pIII protein]” here?
Answer: 610 PFUs

Question: With `O=C(N/N=C/c1ccc(O)c(O)c1)c1cc2ccccc2cc1O` [Dynasore] as the molecule, how does the “Effect on trans-TM phage transport” value ([1]; inhibitor 500 µM with TMT-3 phage) read?
Answer: no effect

Question: Which “Effect on trans-TM phage transport” value [1, 3] does the source give for `COC(=O)Nc1nc2ccc(C(=O)c3cccs3)cc2[nH]1` [nocodazole] here?
Answer: no effect

Question: Which results are given for `COc1cc(/C=N/NC(=O)c2cccc(F)c2)cc(I)c1O` [Endosidin-2]?
Answer: Reduction of trans-TM transport ([1]; inhibitor 1 mM with 10^10 TMT-3 phage in 50 µl saline in external ear of NTHi-infected rats (48 h)): ~ 80%; Effect on trans-TM phage transport ([1]; inhibitor 1 mM with TMT-3 phage): significantly reduced transport

Question: For “TPMVERNYNAAD [BPT-1, trans-TM 12-mer peptide expressed on M13 bacteriophage, fused through the C-terminus to the pIII protein]”, which “Mean recovery from ME (PFUs)” value (tympanic membrane (TM)) is on record?
Answer: 95 PFUs

Question: Which “Effect on trans-TM phage transport” value ([1]; inhibitor 50 µg/ml with TMT-3 phage) does the source give for `CCCCC[C@@H](O)[C@H]1C(=O)O[C@H](C)[C@@H](O)/C=C/C=C/C=C/C=C/C=C(\C)[C@@H](O)C[C@H](O)C[C@H](O)C[C@H](O)C[C@H](O)C[C@H](O)C[C@@H]1O` [Filipin] here?
Answer: no effect

Question: With `CN(C)CCCN1c2ccccc2Sc2ccc(Cl)cc21` [chlorpromazine] as the molecule, how does the “Effect on trans-TM phage transport” value [1, 3] read?
Answer: Neither Pitstop-2, as illustrated in Fig. 5, nor chlorpromazine had any effect

Question: For `CCN1C(=O)C=CC1=O` [N-ethymaleimide], which “Effect on trans-TM phage transport” value ([1]; inhibitor 50 µM with TMT-3 phage) is on record?
Answer: no effect

Question: With “TLSPKMPGGGYW [TMT-2, trans-TM 12-mer peptide expressed on M13 bacteriophage, fused through the C-terminus to the pIII protein]” as the molecule, how does the “Mean recovery from ME (PFUs)” value (tympanic membrane (TM)) read?
Answer: 3210 PFUs

Question: Which “Reduction of trans-TM transport” value ([1]; inhibitor 200 µM with 10^10 TMT-3 phage in 50 µl saline in external ear of NTHi-infected rats (48 h)) does the source give for `COC(=O)c1ccccc1NC(=O)c1ccc(F)cc1` [Exo-1] here?
Answer: 40%

Question: And the “Effect on trans-TM phage transport” value ([1]; inhibitor 200 µM with TMT-3 phage)?
Answer: significantly reduced transport

Question: Which “Effect on trans-TM phage transport” value ([1]; inhibitor 2 µM with TMT-3 phage) does the source give for `CO/C1=C\C(C)=C\[C@@H](C)[C@@H](O)[C@@H](C)C/C(C)=C/C=C/[C@H](OC)[C@@H]([C@@H](C)[C@@H](O)[C@H](C)[C@@]2(O)C[C@@H](O)[C@H](C)[C@@H](C(C)C)O2)OC1=O` [Bafilomycin] here?
Answer: no effect

Question: Which results are given for `Cc1ccc(C=Nc2ccccc2C(=O)Nc2ccccc2)s1` [Retro-2]?
Answer: Reduction of trans-TM transport [1, 4]: approximately 90%; Effect on trans-TM phage transport [1, 2]: significantly reduced transport

Question: For “THPSTKVPGTPA [BPT-3, trans-TM 12-mer peptide expressed on M13 bacteriophage, fused through the C-terminus to the pIII protein]”, which “Mean recovery from ME (PFUs)” value (tympanic membrane (TM)) is on record?
Answer: 13,050 PFUs

Question: With `COC[C@H]1OC(=O)c2coc3c2[C@@]1(C)C1=C(C3=O)[C@@H]2CCC(=O)[C@@]2(C)C[C@H]1OC(C)=O` [wortmannin] as the molecule, how does the “Reduction of trans-TM transport” value [1, 4] read?
Answer: approximately 90%

Question: What about the “Effect on trans-TM phage transport” value [1, 2] of the same molecule?
Answer: significantly reduced transport

Question: With “SADSTKTTHLTL [TMT-3, trans-TM 12-mer peptide expressed on M13 bacteriophage, fused through the C-terminus to the pIII protein]” as the molecule, how does the “Mean recovery from ME (PFUs)” value (tympanic membrane (TM)) read?
Answer: 12,030 PFUs

Question: Which “Effect on trans-TM phage transport” value [1, 2] does the source give for `O=c1c(-c2ccc(O)cc2)coc2cc(O)cc(O)c12` [genistein] here?
Answer: no effect

Question: With “DVGAGRWFSDNG [TMT-4, trans-TM 12-mer peptide expressed on M13 bacteriophage, fused through the C-terminus to the pIII protein]” as the molecule, how does the “Mean recovery from ME (PFUs)” value (tympanic membrane (TM)) read?
Answer: 5430 PFUs
